Experimental data reported in patent US20230255881A1, “METHOD OF RAPIDLY ACHIEVING THERAPEUTIC CONCENTRATIONS OF TRIPTANS FOR TREATMENT OF MIGRAINES AND CLUSTER HEADACHES” (Emergex USA Corporation, priority 2017, published 2023).
Converted amounts (≈) assume the structure as drawn. Where two headings read alike, the source gives them in different places.

How the values were obtained:
[1] = clinical; details: human, in vivo
Protocol: The final treatment administered was 3.8 mg on a 10 cm^2 patch using an applicator with 0.52 Joule of application energy in the intracutaneous microneedle system described herein. The products tested were:
(§1) The array was applied to the center of a 5 cm^2 tan adhesive backing to form the patch. The patch was attached to the interior of a white to off-white polycarbonate ring co-molded with a desiccant, and this patch assembly was packaged in a foil pouch.
as §1
The array was applied to the center of a 10 cm^2 tan adhesive backing to form the patch. The patch was attached to the interior of a white to off-white polycarbonate ring co-molded with a desiccant, and this patch assembly was packaged in a foil pouch.
This was a single-center, open-label, randomized five-way crossover study (Part 1) followed by a sequential study of two additional treatments (Parts 2 and 3). After obtaining informed consent and establishing eligibility, each subject received each of the seven study treatments once, followed by in-clinic monitoring and extensive blood sample collection for pharmacokinetic analysis. […] Plasma samples from the initial dosing days were sent to the analytical laboratory for analysis, and tolerability for each of the dose levels was summarized. […] During Part 3, subjects received a single 3.8 mg patch (applied with a 0.52 J applicator) and also completed identical procedures to the previous dosing days. After completion of the seven dosing days, subjects were assessed one final time and dismissed from the study.
Twenty subjects were enrolled in the study, 10 males and 10 females. The subjects mean age was 29 years±3.5 years with a mean BMI of 24.4±3.5.
PK parameters were summarized by treatment group using descriptive statistics (arithmetic means, standard deviations, coefficients of variation, sample size, minimum, maximum, and median).
Graphs of apparent dose linearity and proportionality of PK parameters (AUCt, AUCinf and Cmax) were compiled.

[2] = cited from earlier work; for AUC0-last: Seaber1997
[3] = Solubility of zolmitriptan in 0.1 M acids at 2-8° C.; format: physicochemical; details: de-ionized water
Description: The suspension was then centrifuged.

[4] = In vivo pig study: zolmitriptan distribution in skin by quantitative mass-spectrometry imaging; details: swine skin after 1-hour ADAM wear
Description: Evidence of zolmitriptan diffusion within the skin was obtained by quantitative mass-specetrometry imaging. Analyses of the surface area of the stratum corneum, epidermis, and dermis indicate that the largest amount of zolmitriptan localized to the dermis.

[5] = tested on: 5HT1B/1D; details: relative to zolmitriptan; cited from earlier work

Question: With `CNS(=O)(=O)Cc1ccc2[nH]cc(CCN(C)C)c2c1` [Sumatriptan SC] as the compound, how does the t1/2 ([1]; sc) read?
Answer: 1.14 H

Question: With `CNS(=O)(=O)Cc1ccc2[nH]cc(CCN(C)C)c2c1` [Sumatriptan] as the compound, how does the Tmax ([2]; marketed dosage form) read?
Answer: about 2 hours

Question: And the bioavailability ([2]; oral administration)?
Answer: about 15%

Question: For `CN(C)CCc1c[nH]c2ccc(C[C@H]3COC(=O)N3)cc12` [Oral Zolmi], which AUC0-last Dose ([1]; po, 2.5 mg) is on record?
Answer: 8.6 ng·h/mL/mg

Question: Which AUC0-last Dose ([1]; sc, 6 mg) does the source give for `CNS(=O)(=O)Cc1ccc2[nH]cc(CCN(C)C)c2c1` [SC Suma] here?
Answer: 16.8 ng·h/mL/mg

Question: For `CN(C)CCc1c[nH]c2ccc(C[C@H]3COC(=O)N3)cc12` [Zolmitriptan, zolmitriptan], which Solubility [3] is on record?
Answer: 1300 µg/mL (≈ 4.52 mM)

Question: What about the “Percentage of Total Zolmitriptan” value ([4]; Dermis/hypodermis) of the same compound?
Answer: 95.5

Question: What about the “Percentage of Total Zolmitriptan” value ([4]; Epidermis) of the same compound?
Answer: 2.7

Question: What about the “Percentage of Total Zolmitriptan” value ([4]; Stratum corneum) of the same compound?
Answer: 1.8

Question: For `CN(C)CCc1c[nH]c2ccc(C[C@H]3COC(=O)N3)cc12` [Zolmitriptan 10 mg oral, zolmitriptan], which AUC0-last ([2]; females (F)) is on record?
Answer: 108.6 ng·h/mL

Question: And the AUC0-last ([2]; males (M))?
Answer: 84.4 ng·h/mL

Question: For `CNCCc1c[nH]c2ccc(C[C@H]3COC(=O)N3)cc12` [N-desmethyl zolmitriptan], which “metabolite concentrations relative to zolmitriptan” value ([2]; after zolmitriptan administration) is on record?
Answer: about two-thirds

Question: What about the “5HT1B/1D potency, times that of the parent” value [5] of the same compound?
Answer: 2 to 6 times

Question: With `CN(C)CCc1c[nH]c2ccc(C[C@H]3COC(=O)N3)cc12` [Zolmitriptan oral tablet] as the compound, how does the AUCinf ([1]; both, po, 2.5 mg) read?
Answer: 27.19 ng · H/mL

Question: And the Cmax ([1]; both, po, 2.5 mg)?
Answer: 3.77 ng/mL

Question: What about the Tmax ([1]; both, po, 2.5 mg) of the same compound?
Answer: 1.79 h

Question: And the AUC(0-t) ([1]; both, po, 2.5 mg, AUC2 hrs)?
Answer: 4.72 ng·h/mL

Question: And the AUC(0-t) ([1]; both, po, 2.5 mg, AUCt)?
Answer: 22.2 ng·h/mL
